Experimental data taken from ChEMBL document CHEMBL3507680, “University of Dundee, Gates Library screen for HepG2 cell viability”.

assay: Human HepG2 cell viability assay in 384 well format; assay type: toxicity, cell-based; set-up: dose 125 nL, time 70.5 hour; cytotoxicity at 70.5 h: concentration not given beside the values; settings: HepG2 cells, read-out: Inhibition

Structure (SMILES)	cytotoxicity at 70.5 h [%]
O=C(NCCNC(=O)N1CCC(c2ccccc2)C1)C1CC1 (stereo not given)	-6.87
C/C=C(\C)CN(CCN1CCOCC1)Cc1ccco1	-8.08
CCCN(Cc1cccnc1)C(=O)C1CCNC1 (stereo not given)	-1.17
Cc1ccsc1C(=O)N1CCc2ncc(CN(C)C)n2CC1	-7.39
CS(=O)(=O)NCc1ncn2c1CN(C(=O)CC1CCCC1)CCC2	-5.42
Cc1nn(Cn2ccc(C(=O)N3CCCCCC3)n2)c(C)c1Cl	-11.3
Cc1cccc(CNC(Cc2ccsc2)c2nc(C)c(C)s2)n1 (stereo not given)	1.1
CC(=O)N(Cc1noc(C)n1)C1CCN(Cc2ncc(C(C)C)o2)C1 (stereo not given)	51.4
Cc1nn(C)cc1S(=O)(=O)N(CCc1ccccc1)Cc1ccn(C)n1	-4.26
COC1COC2(CCN(Cc3cccc(C#N)c3)CC2)C1 (stereo not given)	-10.7
Cc1cnn(Cc2cc(F)ccc2F)c1NC(=O)NC1CC1	-7.32
CC(C(=O)N(C)Cc1noc(C2CCC2)n1)N1CCc2ccccc2C1 (stereo not given)	23.9
Cc1cc(C)n(C2CCCN(C(=O)CN(C)C3CC3)C2)n1 (stereo not given)	-3.88
COC1CCCN(C(=O)NCCCF)C1 (stereo not given)	-2.7
CO[C@H]1CN(Cc2nc3ccccc3n2C)CC[C@@]12CCCO2	-4.2
COCCCN1CCCN(C(C)C(=O)Nc2ccnn2C(C)C)CC1 (stereo not given)	-4
Cn1cnnc1C1CCN(C(=O)CCCOCc2ccccc2)CC1	-11.3
O=C1CC(C(=O)NCc2ccccc2Oc2ccccc2F)CCN1 (stereo not given)	-1.83
CC(C)c1n[nH]c(C2CN(C(=O)c3csnn3)CCO2)n1 (stereo not given)	-3.07
Cc1cccc(CN2C[C@@H]3OCCN(S(=O)(=O)N(C)C)[C@@H]3C2)c1	-2.05
Cc1cc(C)nc(N2CCN(C(=O)c3cc(Cl)c[nH]3)CC2)n1	-9.1
CNC(=O)[C@H]1C[C@@H]2CN(C(=O)c3ccccn3)C[C@@H]2N1S(C)(=O)=O	-7.73
CNC(=O)[C@H]1C[C@@H]2CN(S(=O)(=O)c3ccccc3)C[C@@H]2N1C(C)=O	-3.07

Structure (SMILES)	cytotoxicity at 70.5 h [%]
COCCN(Cc1nc2c(cnn2C)c(=O)[nH]1)C(C)c1ccccc1 (stereo not given)	-2.95
O=C(CCS(=O)(=O)C1CCCC1)NCc1ccccc1Cn1cncn1	-11
Cc1cccnc1CC(C)N(C)Cc1cccs1 (stereo not given)	-13.2
O=C(NCc1ccoc1)Nc1ccc(CN2CCOC2=O)cc1	19
Nc1cc(CCC2CN(Cc3ccc4cc[nH]c4c3)CCO2)ccn1 (stereo not given)	20.8
CS(=O)(=O)CC(=O)N1C[C@@H]2COC[C@]2(c2nnc(C3CC3)o2)C1	4.38
CSCC(=O)N1CCCC(CO)(CC2CC2)C1 (stereo not given)	-11
CC(C)(C)C(CCO)NC(=O)Nc1ccncc1 (stereo not given)	23.3
Cc1cc(CNC2(c3ccc(Cl)cc3)CC2)no1	-2.02
CN(CC(=O)N1CCC(COc2ccccc2)CC1)c1cnccn1	-0.223
NS(=O)(=O)CCNC(=O)C1(c2ccc(Br)cc2)CC1	-10.5
N#CCCN(c1ccccc1)S(=O)(=O)CC1CCCCO1 (stereo not given)	-9.85
COC(=O)C(C)N(Cc1cc(=O)n(C)c(=O)n1C)C1CC1 (stereo not given)	4.91
CCN(Cc1nc2c(cnn2C)c(=O)[nH]1)Cc1ccccc1Cl	0.498
CCc1ccc(NC(=O)C(C)N2CCN(Cc3ncc[nH]3)CC2)cc1 (stereo not given)	-2.82
CCc1cc(-c2nccn2-c2ccccc2CN2CCOCC2)on1	16.1
Cc1nnc(Cn2cc(I)cc(C)c2=O)o1	3.35
O=S(=O)(N1CCCC1)N1CC[C@H](c2ccccc2)[C@H]2NCCCC[C@H]21	-2.6
CC(C)OCCC(=O)N(C)CCCc1cc(-c2ccccc2)no1	42.3
Cc1cccc(C(=O)N2CCc3c(COCC4CC4)cncc3C2)n1	-10.4
CC(C)(C)NC(=O)C1(Cc2ccccc2-c2ccncc2)CCOCC1	27.7
Cc1nc(CN(C)CC2CCCN(CCc3ccc(Cl)cc3)C2)n(C)n1 (stereo not given)	-19.1
